target: T1, Gonadotropin-releasing hormone receptor (Homo sapiens, UniProt P30968); assay: Antagonist activity against human GnRH receptor expressed in CHO cells by IP-one HTRF assay; assay type: cell-based
T1 sequence (P30968 whole entry): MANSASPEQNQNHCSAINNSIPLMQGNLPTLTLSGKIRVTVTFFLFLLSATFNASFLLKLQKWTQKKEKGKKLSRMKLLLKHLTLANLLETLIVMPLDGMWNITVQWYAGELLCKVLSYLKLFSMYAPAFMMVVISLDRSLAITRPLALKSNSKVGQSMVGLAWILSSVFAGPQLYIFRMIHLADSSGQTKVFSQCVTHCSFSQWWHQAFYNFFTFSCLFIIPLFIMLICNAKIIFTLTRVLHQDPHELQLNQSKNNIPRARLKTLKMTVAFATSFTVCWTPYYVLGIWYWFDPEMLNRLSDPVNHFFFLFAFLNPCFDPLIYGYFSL

Compared with `O=C(NCc1ncc(Cl)cc1C(F)(F)F)c1ccc2c(c1)C1(CCS(=O)(=O)CC1)C(C1CC1)N2S(=O)(=O)c1ccc(F)cc1` (single isomer, unassigned; enantiomer 1), `O=C(NCc1ncc(C(F)(F)F)cc1Cl)c1ccc2c(c1)C1(CCS(=O)(=O)CC1)C(C1CC1)N2S(=O)(=O)c1ccc(Cl)cc1` (single isomer, unassigned; enantiomer 1) is 2800-fold higher in IC50: 3.3 nM for the first, 9350 nM for the second. The first is the more potent here.

First: N#Cc1cccc(S(=O)(=O)N2c3ccc(C(=O)NCc4ncc(C(F)(F)F)cc4F)cc3C3(CCS(=O)(=O)CC3)C2C2CC2)c1 (single isomer, unassigned; enantiomer 1)
Second: O=C(NCc1ncc(C(F)(F)F)cc1Cl)c1ccc2c(c1)C1(CCS(=O)(=O)CC1)C(C1CC1)N2S(=O)(=O)c1cccc(OC(F)(F)F)c1 (single isomer, unassigned; enantiomer 1)
The IC50 of the first is 1.6-fold higher: 107 nM for the first, 68 nM for the second.

Going from `O=C(NCc1ncc(Cl)cc1C(F)(F)F)c1ccc2c(c1)C1(CCS(=O)(=O)CC1)C(C1CC1)N2S(=O)(=O)c1ccc(F)cc1` (single isomer, unassigned; enantiomer 2) to `O=C(NCc1ncc(C(F)(F)F)cc1Cl)c1ccc2c(c1)C1(CCS(=O)(=O)CC1)C(C1CC1)N2S(=O)(=O)c1ccc(Cl)cc1` (single isomer, unassigned; enantiomer 2), the IC50 falls from 4080 nM to 5.5 nM (740-fold).

First: N#Cc1cccc(S(=O)(=O)N2c3ccc(C(=O)NCc4ncc(C(F)(F)F)cc4F)cc3C3(CCS(=O)(=O)CC3)C2C2CC2)c1 (single isomer, unassigned; enantiomer 2)
Second: O=C(NCc1ncc(C(F)(F)F)cc1Cl)c1ccc2c(c1)C1(CCS(=O)(=O)CC1)C(C1CC1)N2S(=O)(=O)c1cccc(OC(F)(F)F)c1 (single isomer, unassigned; enantiomer 2)
The IC50 of the first is 1.8-fold lower: 2310 nM for the first, 4210 nM for the second. The first is the more potent here.
